Experimental data from PubChem BioAssay (NCI).
Values joined by “and” are separate entries in the source; they are usually repeats but may differ in a detail not shown here. Identical values can stand only once.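 Five compound concentrations were applied to cells in 96-well plates for 48 hours; endpoints were derived by simple linear interpolation of the resulting dose-response curve. Abbreviation: GI50, concentration required for 50% inhibition of growth. The concentration for full growth arrest is given as TGI.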

Legend:
Assay in all cases: NCI-60 cell line screen, 48 h
A498 renal = system: A498 renal
A549 NSCLC = system: A549 NSCLC
MOLT-4 leukemia = system: MOLT-4 leukemia
NCI-H23 lung = system: NCI-H23 lung
OVCAR-4 ovarian = system: OVCAR-4 ovarian
PC-3 prostate = system: PC-3 prostate
RPMI-8226 leukemia = system: RPMI-8226 leukemia
SF-539 CNS = system: SF-539 CNS
SW-620 colon = system: SW-620 colon
U251 CNS = system: U251 CNS

| Structure (SMILES) | TGI (A498 renal) | TGI (A549 NSCLC) | TGI (MOLT-4 leukemia) | TGI (NCI-H23 lung) | TGI (OVCAR-4 ovarian) | TGI (PC-3 prostate) | TGI (RPMI-8226 leukemia) | TGI (SF-539 CNS) | TGI (SW-620 colon) | TGI (U251 CNS) | GI50 (A498 renal) | GI50 (A549 NSCLC) | GI50 (MOLT-4 leukemia) | GI50 (NCI-H23 lung) | GI50 (OVCAR-4 ovarian) | GI50 (PC-3 prostate) | GI50 (RPMI-8226 leukemia) | GI50 (SF-539 CNS) | GI50 (SW-620 colon) | GI50 (U251 CNS) |
| --- | --- | --- | --- | --- | --- | --- | --- | --- | --- | --- | --- | --- | --- | --- | --- | --- | --- | --- | --- | --- |
| O=C(CP(=O)(O)O)NC(CC(=O)OCc1ccccc1)C(=O)OCc1ccccc1 (configuration not stated) | > 100 µM | > 100 µM | > 100 µM | > 100 µM | > 100 µM | > 100 µM | > 100 µM | > 100 µM | > 100 µM | > 100 µM | – | – | – | – | – | – | – | – | – | – |
| CN(C)CCCOc1ccc(-c2ccc3ncc4c(c3c2)n(C2CCOCC2)c(=O)n4C)cn1 | 3.64 µM | 12.3 µM | 14.4 µM | 22.1 µM | 11.3 µM | 13.8 µM | 8.63 µM | 6.21 µM | 21.1 µM | 18.9 µM | 0.559 µM | 2.36 µM | 1.51 µM | 2.53 µM | 1.34 µM | 0.861 µM | 1.1 µM | 1.52 µM | 2.81 µM | 4.52 µM |
| CCCC(=O)NC1=C(Cl)C(=O)c2ccccc2C1=O | 26.1 µM | 16.9 µM | 7.2 µM | 10.3 µM | 17.1 µM | 13.8 µM | 6.19 µM | 7.33 µM | 6.36 µM | 15.3 µM | – | – | – | – | – | – | – | – | – | – |
| CN[C@H]1C=C[C@@H]2/C=C(C)/C=C/[C@@H](C)[C@H]([C@H](C)[C@H](O)[C@@H](C)NC(C)=O)OC(=O)/C=C/C=C(C)\C=C\[C@]2(C)C1 | 2.67 µM | > 49 µM | > 49 µM | > 49 µM | > 49 µM | > 49 µM | 33.2 µM | 12.8 µM | > 49 µM | > 49 µM | 0.0113 µM | 0.0049 µM | 16.6 µM | 0.0687 µM and 0.0376 µM | 7.12 µM | 0.0049 µM | 0.0049 µM | < 0.001 µM and 0.0049 µM | 0.00655 µM | < 0.001 µM and 0.0049 µM |
| CCCNNC(=O)/C=C/c1ccc(CNCCc2c(C)[nH]c3ccccc23)cc1 | 0.0244 µM | 2.02 µM | 4.09 µM | 3.5 µM | 6.45 µM | 3.74 µM | 0.337 µM | 3.78 µM | 0.237 µM | 0.207 µM | 0.00955 µM | 0.0689 µM | 0.0152 µM | 0.0545 µM | 0.0525 µM | 0.0175 µM | 0.0101 µM | 0.0435 µM | 0.0177 µM | 0.0306 µM |
| COc1ccc(-c2cc(=O)c3ccc(C)nc3[nH]2)cc1 | > 100 µM | > 100 µM | > 100 µM | > 100 µM | > 100 µM | > 100 µM | > 100 µM | > 100 µM | > 100 µM | > 100 µM | – | – | – | – | – | > 100 µM | – | – | – | > 100 µM |
| CN(C)CCCNC(=O)c1cc(NC(=O)c2cc(NC(=O)CCc3c[nH]c4ccccc34)cn2C)cn1C | > 100 µM | > 100 µM | > 100 µM | > 100 µM | > 100 µM | > 100 µM | > 100 µM | > 100 µM | > 100 µM | > 100 µM | > 100 µM | > 100 µM | > 100 µM | > 100 µM | > 100 µM | > 100 µM | > 100 µM | > 100 µM | > 100 µM | > 100 µM |
| Cc1cc(S(=O)(=O)Nc2nc3cscc3c(=O)n2Cc2ccccc2)c(S)cc1Cl | > 100 µM | > 100 µM | 32.5 µM | > 100 µM | > 100 µM | > 100 µM | > 100 µM | > 100 µM | > 100 µM | > 100 µM | 46.6 µM | 42.4 µM | 3.94 µM | 51.5 µM | > 100 µM | 35.6 µM | 26.7 µM | 32.1 µM | 26.6 µM | 34.9 µM |
| Cc1cc(=O)oc2cc(OC(=O)N(C)C)c(Cl)cc12 | > 100 µM | > 100 µM | > 100 µM | > 100 µM | > 100 µM | > 100 µM | > 100 µM | > 100 µM | > 100 µM | > 100 µM | – | – | – | – | – | – | – | – | – | – |
| COC(=O)[C@@H](C)C[C@H](Cc1ccccc1)NC(=O)c1csc(CC[C@H](C(C)C)N(C)C(=O)[C@@H](NC(=O)[C@H]2CCCCN2C)C(C)C)n1 | 1.56 µM | > 33.3 µM | > 33.3 µM | > 33.3 µM | > 33.3 µM | > 33.3 µM | > 33.3 µM | 1.91 µM | > 33.3 µM | > 33.3 µM | 0.19 µM | 1.27 µM | 0.44 µM | 0.882 µM | 0.991 µM | 0.383 µM | 0.135 µM | 0.444 µM | 0.164 µM | 0.398 µM |
| C=C1C(=O)O[C@@H]2C[C@@H](C)[C@@H]3C=CC(=O)[C@@]3(C)[C@@H](OC(=O)CC(=O)O[C@H]3[C@@H]4C(=C)C(=O)O[C@@H]4C[C@@H](C)[C@@H]4C=CC(=O)[C@]43C)[C@H]12 | 0.467 µM | 2.46 µM | < 0.0304 µM | 0.123 µM | 0.14 µM | 0.436 µM | 0.0866 µM | 0.0781 µM | 0.0326 µM | 0.149 µM | – | – | – | – | – | – | – | – | – | – |
| CC(=O)O[C@H]1CC[C@@]2(C)C(=CC[C@H]3[C@@H]4CC[C@H](c5cc(C(F)(F)F)n(C(C)=O)n5)[C@@]4(C)CC[C@@H]32)C1 | 22.5 µM | 20.5 µM | 8.39 µM | 28.6 µM | 15.6 µM | 16 µM | 17.9 µM | 21.9 µM | 49 µM | 16.5 µM | – | – | – | – | – | – | – | – | – | – |
| [Cl][Hg][Cl] | 34.7 µM | 39.3 µM | > 37.7 µM | 40.5 µM | 35 µM | 32 µM | > 60.3 µM | 33.5 µM | 40.2 µM | 19.8 µM | 20.4 µM | 20.2 µM | 4.08 µM | 17.2 µM | 16.9 µM | 17.3 µM | 20 µM | 18.3 µM | 5.4 µM | 6.25 µM |
| CC[N+](CC)=c1sc2c(s1)C(c1ccc(Cl)cc1)Oc1ccc(Cl)cc1-2 (configuration not stated) | 10.2 µM | 6.9 µM | 6.41 µM | 6.79 µM | 12.7 µM | 3.28 µM | 7.5 µM | 2.97 µM | 2.72 µM | 1.37 µM | 3.37 µM | 1.86 µM | 2.16 µM | 1.07 µM | 3.03 µM | 1.38 µM | 1.99 µM | 1.46 µM | 1.08 µM | 0.374 µM |
| Clc1nc(Cl)c2ncn(Cc3cccc(Cn4cnc5c(Cl)nc(Cl)nc54)c3)c2n1 | 17.2 µM | 26.3 µM | 13.7 µM | 22.1 µM | 13.2 µM | 13.6 µM | 11.1 µM | 3.13 µM | 3.34 µM | 13.9 µM | 4.59 µM | 11.3 µM | 3.48 µM | 8.5 µM | 3.69 µM | 3.99 µM | 2.59 µM | 1.39 µM | 1.82 µM | 3.91 µM |
| O=c1c(Oc2ccc(F)cc2F)cc2cnc(NC3CCOCC3)nc2n1CCCO | > 25 µM | > 25 µM | > 25 µM | > 25 µM | > 25 µM | > 25 µM | > 25 µM | > 25 µM | > 25 µM | > 25 µM | > 18.3 µM | > 25 µM | > 25 µM | > 25 µM | > 14.6 µM | > 25 µM | > 25 µM | > 25 µM | > 25 µM | > 25 µM |
